Data taken from US20120121545A1, “Pharmaceutical Composition For Bone Disease Treatment Or Countering Inflammation, Comprising Cartilage Stem Cells As An Active Principle” (CoreStem Co., Ltd., priority 2009, published 2012).

Experiments:
Type in all cases: in vivo, Sprague-Dawley rats
[1] = test system: osteoarthritis-induced rats; assay: Change in maximum knee joint angle, osteoarthritis-induced rats; details: diclofenac sodium 2 mg/kg subcutaneously once a day for 84 days; after 84 days
Description: One hundred and twenty (120) 6-week-old male Sprague-Dawley rats (SLC, Japan) were used for test after accommodation for 7 days. All the test animals were kept in a polycarbonate cage, four or five each, and reared in a laboratory with temperature (20-25° C.) and humidity (40-45%) controlled. The light/dark cycle was 12 hours:12 hours, and feed (Samyang Corporation, Korea) and drinking water well provided freely. All the test animals had been fasted for at least 18 hours before sacrificing. They were treated according to “Guide for the Care and Use of Laboratory Animals by Institute of Laboratory Animal Resources, Commission on Life Science, National Research Council, USA on 1996, Washington D.C.”. […]
The administration groups of the drug and cell were sacrificed after 84 days. After taking out the right hind leg from the hip joint and removing nearby skin, connective tissues and muscles, the maximum knee joint angle was measured with the theoretical maximum as 0°. […]
Percent change between the normal control group and the osteoarthritis-induced control group was calculated by Equation 1 in order to evaluate the degree of inducement of osteoarthritis. Also, percent change between the cell administration group and the osteoarthritis-induced control group was calculated by Equation 2 in order to more clearly represent the efficacy of the administered cells. […]

[2] = test system: osteoarthritis-induced rats; assay: Knee cartilage thickness by histomorphometry; details: diclofenac sodium 2 mg/kg subcutaneously once a day for 84 days
Description: The articular capsule taken from the knee joint of each control group and test group was fixed for 5 days in 10% neutral-buffered formalin (NBF) and decalcified in decalcifying solution (24.4% formic acid, and 0.5 N sodium hydroxide). The decalcifying solution was replaced once a day for 5 days. After the decalcification, the median joint parts of the articular capsule were cut transversely and embedded in paraffin. […]
Mankin score was measured by comparing damage to the knee joint tissue with that of the normal control group. Cartilage thickness of the tibia and the femur was measured by histomorphometry using an automatic image analyzer (DMI-300, DMI, Korea). […]

[3] = test system: osteoarthritis-induced rats; assay: Growth of chondrocytes in knee cartilage (BrdU labelling); details: diclofenac sodium 2 mg/kg subcutaneously once a day for 84 days
Description: (§1) One hundred and twenty (120) 6-week-old male Sprague-Dawley rats (SLC, Japan) were used for test after accommodation for 7 days. All the test animals were kept in a polycarbonate cage, four or five each, and reared in a laboratory with temperature (20-25° C.) and humidity (40-45%) controlled. The light/dark cycle was 12 hours:12 hours, and feed (Samyang Corporation, Korea) and drinking water well provided freely. All the test animals had been fasted for at least 18 hours before sacrificing. They were treated according to “Guide for the Care and Use of Laboratory Animals by Institute of Laboratory Animal Resources, Commission on Life Science, National Research Council, USA on 1996, Washington D.C.”. On day 7 after joint surgery, the rats were grouped into 7 groups as described in Table 4 based on joint thickness and body weight. 8 rats were selected from each group (56 in total) for test.
(§2) The cells were suspended in CSBM at four different concentrations (high concentration: 9.6×10^6 cells/rat, intermediate high concentration: 4.8×10^6 cells/rat, intermediate low concentration: 2.4×10^6 cells/rat, low concentration: 1.2×10^6 cells/rat). […] For the normal group and the osteoarthritis-induced control group, only the CSBM was administered into the articular capsule.
Chondrocytes growing in the articular capsule were labeled with BrdU in order to investigate their growth due to the administration of the cartilage-derived stem cells. Since the cells labeled with BrdU are those grown after the injection of BrdU, the growth of chondrocytes can be analyzed.
5-Bromo-2′-deoxyuridine (50 mg/kg, BrdU, MP Biomedicals, OH, USA) diluted in physiological saline to a concentration of 2 mL/kg was intraabdominally injected once 72 hours before the sacrificing of the rats of the control groups and test groups. Then, immunohistochemical staining was performed using BrdU antibody (Hwang et al., 2000; Moore et al., 2005; Ganey et al., 2003; Ito et al., 1998; Tang et al., 2007).
The expression pattern of BrdU was investigated using the Vector Elite ABC kit (Vector Lab. Inc., CA., USA). After washing the tissue with DPBS, reaction was performed in 3% hydrogen peroxide (H2O2) solution for 30 minutes at room temperature. After washing with DPBS, reaction was performed for 30 minutes using normal horse serum (1:100, Vector Lab. Inc., CA, USA) in order to prevent nonspecific reaction that might occur during the staining. […] The number of cells responding to BrdU antibody by 10% or more was counted. From a total of 100 chondrocytes on the articular surface of the tibia and the femur, the percentage of BrdU-positive cells was measured using an automatic image analyzer. […]

[4] = test system: osteoarthritis-induced rats; assay: Histopathological analysis of knee cartilage: Mankin score; details: diclofenac sodium 2 mg/kg subcutaneously once a day for 84 days
Description: as §1, §2
For histopathological observation and analysis of the cartilage Mankin score and cartilage thickness were measured (Table 9). Mankin score is frequently used to evaluate arthritis. A higher score is known to be related with higher inducement of osteoarthritis (Armstrong et al., 1994; Rezende et al., 2006).
The articular capsule taken from the knee joint of each control group and test group was fixed for 5 days in 10% neutral-buffered formalin (NBF) and decalcified in decalcifying solution (24.4% formic acid, and 0.5 N sodium hydroxide). The decalcifying solution was replaced once a day for 5 days. After the decalcification, the median joint parts of the articular capsule were cut transversely and embedded in paraffin. After preparing 3-4 μm thick tissue sections, followed by deparaffinization and hydration, the cartilage was observed after hematoxylin & eosin (H&E) staining and safranin O staining (Camplejohn and Allard, 1988; Kahveci et al., 2000; Tran et al., 2000).
Mankin score was measured by comparing damage to the knee joint tissue with that of the normal control group. Cartilage thickness of the tibia and the femur was measured by histomorphometry using an automatic image analyzer (DMI-300, DMI, Korea).
Mankin Score is Given by the Sum.
Percent change (%) between the cell administration group and the osteoarthritis-induced control group=[(Value of the cell administration group−Value of the osteoarthritis-induced control group)/Value of the osteoarthritis-induced control group]×100 Equation 2

[5] = test system: osteoarthritis-induced rats; assay: Change in knee joint thickness, osteoarthritis-induced rats; details: diclofenac sodium 2 mg/kg subcutaneously once a day for 84 days
Description: One hundred and twenty (120) 6-week-old male Sprague-Dawley rats (SLC, Japan) were used for test after accommodation for 7 days. All the test animals were kept in a polycarbonate cage, four or five each, and reared in a laboratory with temperature (20-25° C.) and humidity (40-45%) controlled. The light/dark cycle was 12 hours:12 hours, and feed (Samyang Corporation, Korea) and drinking water well provided freely. All the test animals had been fasted for at least 18 hours before sacrificing. They were treated according to “Guide for the Care and Use of Laboratory Animals by Institute of Laboratory Animal Resources, Commission on Life Science, National Research Council, USA on 1996, Washington D.C.”. On day 7 after joint surgery, the rats were grouped into 7 groups as described in Table 4 based on joint thickness and body weight. 8 rats were selected from each group (56 in total) for test. […] The joint thickness of the rats in the control groups and test groups was measured using calipers. […] Percent change between the normal control group and the osteoarthritis-induced control group was calculated by Equation 1 in order to evaluate the degree of inducement of osteoarthritis. Also, percent change between the cell administration group and the osteoarthritis-induced control group was calculated by Equation 2 in order to more clearly represent the efficacy of the administered cells. […]

O=C(O)Cc1ccccc1Nc1c(Cl)cccc1Cl [Control drug, diclofenac sodium]
Maximum knee joint angle [1]: 60.75 ± 6.78 ° | knee joint angle decreased as compared to the normal control group [1]: 18.18% | Knee cartilage thickness, Femur [2]: 409.48 ± 69.80 | cartilage thickness of the femur, increase as compared to the osteoarthritis-induced control group [2]: 35.11% | cartilage thickness of the tibia, increase as compared to the osteoarthritis-induced control group [2]: 68.81% | Number of BrdU-positive cells/100 chondrocytes, Femur [3]: 8.63 ± 4.03 /100 chondrocytes | Number of BrdU-positive cells/100 chondrocytes, Tibia [3]: 8.13 ± 3.52 /100 chondrocytes | number of BrdU-positive cells on the articular surface of the femur, increase as compared to the osteoarthritis-induced control group [3]: 9.52% | number of BrdU-positive cells on the articular surface of the tibia, increase as compared to the osteoarthritis-induced control group [3]: 1.56% | Mankin score of the femur, decrease as compared to the osteoarthritis-induced control group [4]: 27.85% | Mankin score of the femur: Clones [4]: 2.38 ± 0.92 | Mankin score of the femur: Hypocellularity [4]: 1.38 ± 0.52 | Mankin score of the femur: Safranin O [4]: 1.25 ± 0.46 | Mankin score of the femur: Sum (Max = 12) [4]: 7.13 ± 1.36 | Mankin score of the femur: Surface [4]: 2.13 ± 0.35 | Mankin score of the tibia, decrease as compared to the osteoarthritis-induced control group [4]: 20.59% | Mankin score of the tibia: Clones [4]: 1.75 ± 0.71 | Mankin score of the tibia: Hypocellularity [4]: 1.63 ± 0.52 | Mankin score of the tibia: Safranin O [4]: 1.38 ± 0.74 | Mankin score of the tibia: Sum (Max = 12) [4]: 6.75 ± 1.16 | Mankin score of the tibia: Surface [4]: 2.00 ± 0.53 | reduced knee joint thickness as compared to the osteoarthritis control group [5]: 5.79%
